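Exposure lasted 48 hours, with cells grown in 96-well plates and compounds tested at five concentrations. Here, GI50 denotes the concentration required for 50% inhibition of growth. TGI is the concentration that stops growth completely.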
Legend:
Assay in all cases: inhibition of tumour cell growth, NCI panel, 48 h
A498 renal = system: A498 renal
K-562 leukemia = system: K-562 leukemia
MALME-3M melanoma = system: MALME-3M melanoma
NCI-H23 lung = system: NCI-H23 lung
NCI/ADR-RES ovarian = system: NCI/ADR-RES ovarian
SF-268 CNS = system: SF-268 CNS
SK-MEL-28 melanoma = system: SK-MEL-28 melanoma
SNB-75 CNS = system: SNB-75 CNS
SW-620 colon = system: SW-620 colon
UACC-257 melanoma = system: UACC-257 melanoma

| SMILES | GI50 (A498 renal) | TGI (A498 renal) | GI50 (K-562 leukemia) | TGI (K-562 leukemia) | GI50 (MALME-3M melanoma) | TGI (MALME-3M melanoma) | GI50 (NCI-H23 lung) | TGI (NCI-H23 lung) | GI50 (NCI/ADR-RES ovarian) | TGI (NCI/ADR-RES ovarian) | GI50 (SF-268 CNS) | TGI (SF-268 CNS) | GI50 (SK-MEL-28 melanoma) | TGI (SK-MEL-28 melanoma) | GI50 (SNB-75 CNS) | TGI (SNB-75 CNS) | GI50 (SW-620 colon) | TGI (SW-620 colon) | GI50 (UACC-257 melanoma) | TGI (UACC-257 melanoma) |
| --- | --- | --- | --- | --- | --- | --- | --- | --- | --- | --- | --- | --- | --- | --- | --- | --- | --- | --- | --- | --- |
| c1ccc2c3c([nH]c2c1)C(c1ccc(C2NCCc4c2[nH]c2ccccc42)cc1)NCC3 (stereo not given) | 1.64 µM | 8.87 µM | 0.244 µM | 0.488 µM | 1.55 µM | 3.11 µM | 1.65 µM | 3.36 µM | 2.1 µM | 7.81 µM | 1.12 µM | 2.57 µM | 1.68 µM | 3.18 µM | 0.691 µM | 2.07 µM | 0.185 µM | 0.344 µM | 1.91 µM | 3.52 µM |
| CC1=C(Nc2ccc(N3CCN(C)CC3)cc2)C(=O)c2cncnc2C1=O |  |  | 2.78 µM | > 100 µM | 8.96 µM | 21.7 µM | 6.26 µM | 32.7 µM | 3.09 µM | 20.3 µM | 16 µM | 50.4 µM | 17.1 µM | 43.3 µM | 14.7 µM | 30 µM | 2.54 µM | 8.04 µM | 2.34 µM | 6.42 µM |
| COc1cc2c3c(n(C)c(=O)c2cc1OC)-c1ccc(C#N)cc1C3=O | 64.7 µM | > 100 µM | > 100 µM | > 100 µM | > 100 µM | > 100 µM | > 100 µM | > 100 µM | > 100 µM | > 100 µM | > 100 µM | > 100 µM | > 100 µM | > 100 µM |  |  | > 100 µM | > 100 µM | > 100 µM | > 100 µM |
| O=C(CC(Cl)=C(Cl)Cl)c1cccc(Cl)c1Cl | > 100 µM | > 100 µM |  |  | > 100 µM | > 100 µM | 63.2 µM | > 100 µM | 85.1 µM | > 100 µM | > 100 µM | > 100 µM | > 100 µM | > 100 µM |  |  | 88.7 µM | > 100 µM | > 100 µM | > 100 µM |
| CCN1CCN(C(=O)[C@]23CCC(C)(C)C[C@@H]2C2=CC[C@@H]4[C@@]5(C)C/C(=C/c6ccncc6)C(=O)C(C)(C)[C@@H]5CC[C@@]4(C)[C@]2(C)CC3)CC1 | 1.7 µM | 3.1 µM | 1.6 µM | > 100 µM | 1.65 µM | 3.14 µM | 1.63 µM | 3.16 µM | 1.48 µM | 3.17 µM |  |  | 1.62 µM | 3.03 µM |  |  | 1.48 µM | 3.14 µM | 1.51 µM | 3.28 µM |
| COc1cc2nc3cc([N+](=O)[O-])ccc3c(NCCNCC(C)(C)O)c2cc1OC | 1.83 µM | 3.63 µM |  |  | 0.622 µM | 1.97 µM | 0.629 µM | 3.43 µM | 5.68 µM | 20.5 µM | 0.491 µM | 2.54 µM |  |  | 0.608 µM | 2.05 µM | 0.54 µM | 4.07 µM | 1.94 µM | 4.19 µM |
| O=C1c2ccccc2C(=O)c2c(OCCOCCO)cccc21 |  |  |  | > 100 µM |  | > 100 µM |  | > 100 µM |  | > 100 µM |  | > 100 µM |  | > 100 µM |  | > 100 µM |  | > 100 µM |  | > 100 µM |
| O=C1Cc2cc(C(=O)NC3C[C@H]4CC[C@@H](C3)N4S(=O)(=O)CC3CCN(CCCC(F)(F)F)CC3)c(Cl)cc2N1 (stereo not given in full) | > 100 µM | > 100 µM |  |  | > 100 µM | > 100 µM | > 100 µM | > 100 µM | > 100 µM | > 100 µM | > 100 µM | > 100 µM | > 100 µM | > 100 µM | > 100 µM | > 100 µM | > 100 µM | > 100 µM | > 100 µM | > 100 µM |
| C#CCOc1ccc2ncnc(Nc3ccc(NC(=O)C=C)cc3)c2c1 | > 100 µM | > 100 µM | 3.38 µM | 23.6 µM | 6.23 µM | 30.2 µM | > 100 µM | > 100 µM | > 100 µM | > 100 µM | 71.3 µM | > 100 µM | 23.6 µM | > 100 µM |  |  | 6.3 µM | 33.1 µM | 56.9 µM | > 100 µM |
| Cc1ccc(S(=O)(=O)NC(CN)C(=O)O)cc1 (stereo not given) |  | > 100 µM |  |  |  | > 100 µM |  | > 100 µM |  | > 100 µM |  | > 100 µM |  | > 100 µM |  | > 100 µM |  | > 100 µM |  | > 100 µM |
| COc1cccc(/C=C2\COc3ccc(-c4ccccc4)cc3C2=O)c1 | 1.89 µM | 3.52 µM | 3.32 µM | > 100 µM | 2.53 µM | 12.6 µM | 3.14 µM | 10 µM | 3.63 µM | 14.5 µM | 3.52 µM | 11.6 µM | 1.91 µM | 3.62 µM | 1.99 µM | 4.8 µM | 2.01 µM | 4.54 µM |  |  |
| C=C1C(=O)OC2/C=C(/C)C(OC(C)=O)C/C=C(\C)C(OC(=O)C3(C)OC3C)C(O)C12 (stereo not given) |  | > 100 µM |  | > 100 µM |  |  |  | > 100 µM |  | > 100 µM |  | > 100 µM |  | > 100 µM |  | > 100 µM |  | > 100 µM |  | > 100 µM |

Reference: PubChem BioAssay (NCI)
